Data as given in patent US20170246311A1, “PEPTIDES FOR BINDING ALTERNATIVELY ACTIVATED MACROPHAGES” (University of Washington, priority 2016, published 2017).
Starred links: 1 amine or outer side, 2 acyl side, 3 side chain; linkers in the order of their positions; H or OH if unused. Positions of bridges follow the written chain, without caps; N, C: chain ends. Non-standard residues stand in square brackets, D forms with d. Residues, ends and D or L forms follow the SMILES beside them. No end group written: not given here. *: point of attachment. Perfluorobiphenyl(4,4') = Fc1c(F)c([*:1])c(F)c(F)c1-c1c(F)c(F)c([*:2])c(F)c1F; Biotin = O=C1N[C@H]2[C@H](CS[C@H]2CCCCC(=O)*)N1; Phe(F5) = N[C@@H](Cc1c(F)c(F)c(F)c(F)c1F)C(=O)O

Columns and labels:
[1] = tested on: macrophages; assay type: cell-based, mouse
[2] = Solubility of cyclized peptide analogs
[3] = molecular target: M2pep receptor on M2 macrophages (identity unknown) (mouse); assay: flow cytometry binding curves on murine M2 macrophages
[4] = molecular target: M2pep receptor on M2 macrophages (identity unknown) (mouse); assay: flow cytometry on murine M2 macrophages, biotinylated peptide + streptavidin-FITC; apparent KD from half-maximal MFI
[5] = molecular target: M2pep receptor on M2 macrophages (identity unknown) (mouse); assay: flow cytometry on murine M2 macrophages; apparent KD

For `CC(C)[C@@H]1NC(=O)CNC(=O)[C@H](Cc2c[nH]c3ccccc23)NC(=O)[C@@H]2CCCN2C(=O)[C@H](CC(=O)O)NC(=O)[C@H](CCC(N)=O)NC(=O)[C@H](CCC(=O)O)NC(=O)[C@H](Cc2ccc(O)cc2)NC(=O)CNC(=O)[C@H](Cc2c(F)c(F)c(F)c(F)c2F)NC(=O)[C@H](Cc2c(F)c(F)c(F)c(F)c2F)NC(=O)[C@@H](N)CSSC[C@@H](C(=O)N[C@H](CCCCN)C(=O)N[C@H](CCCCN)C(=O)N[C@H](CCCCN)C(=O)N[C@@H](CCCCNC(=O)CCCC[C@@H]2SC[C@@H]3NC(=O)N[C@@H]32)C(N)=O)NC(=O)CNC(=O)[C@H](Cc2ccc(O)cc2)NC(=O)[C@H](Cc2c[nH]c3ccccc23)NC(=O)[C@H](Cc2ccc(O)cc2)NC(=O)[C@H](CCCNC(=N)N)NC1=O` [F(F5)F(F5)-cyclized M2pep(RY)Biotin] (H-C[Phe(F5)][Phe(F5)]GYEQDPWGVRYWYGC[dK][dK][dK]K(Biotin)-NH2; disulfide 1-18), the toxicity to macrophages [1] was “very toxic to macrophages even at low micromolar concentrations” and the “solubility (in words)” value [2] was “less soluble than the FF-cyclized analog”.

DFBP-cyclized M2pep(RY)Biotin (peptide) gave a fold enhancement of binding activity against DFBP-cyclized M2pepBiotin [3] of 4 fold and a Kd [4] of 2.03 µM.

With `CC(C)[C@@H]1NC(=O)CNC(=O)[C@H](Cc2c[nH]c3ccccc23)NC(=O)[C@@H]2CCCN2C(=O)[C@H](CC(=O)O)NC(=O)[C@H](CCC(N)=O)NC(=O)[C@H](CCC(=O)O)NC(=O)[C@H](Cc2ccc(O)cc2)NC(=O)CNC(=O)[C@@H](N)CSc2c(F)c(F)c(c(F)c2F)-c2c(F)c(F)c(c(F)c2F)SC[C@@H](C(=O)N[C@H](CCCCN)C(=O)N[C@H](CCCCN)C(=O)N[C@H](CCCCN)C(=O)N[C@@H](CCCCNC(=O)CCCC[C@@H]2SC[C@@H]3NC(=O)N[C@@H]32)C(N)=O)NC(=O)CNC(=O)[C@H](Cc2ccc(O)cc2)NC(=O)[C@H](Cc2c[nH]c3ccccc23)NC(=O)[C@H](Cc2ccc(O)cc2)NC(=O)[C@H](CCCNC(=N)N)NC1=O` [DFBP-cyclized M2pep(RY)Biotin] (H-CGYEQDPWGVRYWYGC[dK][dK][dK]K(Biotin)-NH2; linker 1-16 via Perfluorobiphenyl(4,4')) the “solubility (in words)” value [2] was “higher solubility than FF-cyclized M2pep(RY)Biotin”.

B1: M2pepBiotin (peptide)
peptide: YEQDPWGVKWWYGGGSKKK(Biotin)-NH2
In the case of B1, the Kd [5] is reported as 220 µM.
